In patent US8030453B2, “Methods of making an antibody that binds a chemerin polypeptide” (Euroscreen S.A., priority 2001, dated 2011):
Where two headings read alike, the source gives them in different places. Peptide text beside a SMILES is read from it.

Assays:
[1] = target: T1, human ChemerinR (ChemR23) expressed in CHO-K1 cells (Homo sapiens, UniProt Q99788); assay: aequorin-based intracellular Ca2+ release assay; type: cell-based
T1 construct: This fragment was subcloned into the pcDNA3 (Invitrogen) vector; expressed in transfected cells; host or cells: CHO-K1 (co-expressing mitochondrial apoaequorin and Galpha16)
T1 sequence (Q99788 3-373): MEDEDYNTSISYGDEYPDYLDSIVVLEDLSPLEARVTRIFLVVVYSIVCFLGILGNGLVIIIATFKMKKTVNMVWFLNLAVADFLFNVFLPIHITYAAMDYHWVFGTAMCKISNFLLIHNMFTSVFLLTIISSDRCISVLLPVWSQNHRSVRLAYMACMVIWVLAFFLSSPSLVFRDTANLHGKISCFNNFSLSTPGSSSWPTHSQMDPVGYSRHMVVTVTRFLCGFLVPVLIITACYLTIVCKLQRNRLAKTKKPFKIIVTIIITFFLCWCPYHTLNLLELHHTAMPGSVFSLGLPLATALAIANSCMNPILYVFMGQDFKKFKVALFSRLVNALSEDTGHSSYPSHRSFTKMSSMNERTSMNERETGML
Experimental: Briefly, ChemerinR-expressing clones are transfected to coexpress mitochondrial apoaequorin and Gα16. Cells are incubated with 5 μM Coelenterazine H (Molecular Probes) for 4 hours at room temperature, washed in DMEM-F12 culture medium and resuspended at a concentration of 0.5×10^6 cells/ml. Cells are then mixed with test agonist peptides and light emission by the aequorin is recorded with a luminometer for 30 sec. Results are expressed as Relative Light Units (RLU). Controls include assays using membranes isolated from cells not expressing ChemerinR (mock-transfected), in order to exclude possible non-specific effects of the candidate compound.
ChemerinR-expres sing clones have been obtained by transfection of CHO-K1 cells to coexpressing mitochondrial apoaequorin and Gα16, limiting dilution and selection by northern blotting. Positive clones were used for screening with human ovarian cancer ascites extracts prepared as described above. […] Briefly, cells were collected from plates in PBS containing 5 mM EDTA, pelleted and resuspended at 5×10^6 cells/ml in DMEM-F12 medium. Cells were incubated with 5 μM Coelenterazine H (Molecular Probes) for 4 hours at room temperature. Cells were then washed in DMEM-F12 medium and resuspended at a concentration of 0.5×10^6 cells/ml. Cells were then mixed with test agonist peptides or plates containing tissue extracts and the light emission was recorded for 30 sec using a Microlumat luminometer (Perkin Elmer). Results are expressed as Relative Light Units (RLU).

ChemerinR = target: T2, ChemerinR (Homo sapiens, UniProt Q99788); assay: Calcium flux - Aequoscreen assay; type: cell-based
T2 construct: This fragment was subcloned into the pcDNA3 (Invitrogen) vector; expressed in transfected cells; CHO-K1 elsewhere)
T2 sequence (Q99788 3-373): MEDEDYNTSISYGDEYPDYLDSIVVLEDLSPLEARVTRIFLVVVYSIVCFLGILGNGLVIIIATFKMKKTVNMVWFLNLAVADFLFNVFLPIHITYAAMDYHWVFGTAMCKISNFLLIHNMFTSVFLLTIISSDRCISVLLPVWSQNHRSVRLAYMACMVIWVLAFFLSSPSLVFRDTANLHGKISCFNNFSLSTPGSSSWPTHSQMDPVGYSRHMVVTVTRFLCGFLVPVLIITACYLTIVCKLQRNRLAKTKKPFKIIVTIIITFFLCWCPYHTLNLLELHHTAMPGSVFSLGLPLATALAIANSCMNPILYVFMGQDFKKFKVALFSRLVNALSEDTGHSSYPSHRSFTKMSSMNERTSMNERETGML
Experimental: ChemerinR expressing clones were transfected to coexpress mithochondrial apoaequorin and Gα16. Cells in mid-log phase, grown in media without antibiotics 18 hours prior to the test, were detached by gentle flushing with PBS-EDTA (5 mM EDTA), recovered by centrifugation and resuspended in “BSA medium” (DMEM/HAM's F12 with HEPES, without phenol red+0.1% BSA). Cells were then counted, centrifuged and resuspended in a 15 ml Falcon tube at a concentration of 1×10^6 cells/ml.
The Falcon tube, wrapped in aluminium foil, was then placed on a vertical rotating wheel and incubated at room temperature (temperature should be maintained below 22° C.) overnight in order to reconstitute active aequorin.
Cells were then diluted 1/10 in “BSA-medium” and incubated as described above for 60 min. Reference ligands were diluted in “BSA-medium” and distributed in a 96-well plate (50 μl/well). For each measurement, 50 μl of cells (i.e. 5 000 cells) were injected into each well of the plate containing the ligands, and the emitted light is recorded (FDSS, Hamamatsu) during 20 seconds following cells injection. Results were expressed as Relative Light Units (RLU).
The intensity of the emitted light was integrated, yielding for each well one value representative of the emitted light.

[2] = target: T3, ChemerinR expressing CHO-K1 cells (Homo sapiens, UniProt Q99788); assay: competition binding assay with 125I-[…] tracer; conditions: mean±s.e.m for 3 independent experiments
T3 construct: This fragment was subcloned into the pcDNA3 (Invitrogen) vector; expressed in transfected cells; host or cells: CHO-K1
T3 sequence (Q99788 3-373): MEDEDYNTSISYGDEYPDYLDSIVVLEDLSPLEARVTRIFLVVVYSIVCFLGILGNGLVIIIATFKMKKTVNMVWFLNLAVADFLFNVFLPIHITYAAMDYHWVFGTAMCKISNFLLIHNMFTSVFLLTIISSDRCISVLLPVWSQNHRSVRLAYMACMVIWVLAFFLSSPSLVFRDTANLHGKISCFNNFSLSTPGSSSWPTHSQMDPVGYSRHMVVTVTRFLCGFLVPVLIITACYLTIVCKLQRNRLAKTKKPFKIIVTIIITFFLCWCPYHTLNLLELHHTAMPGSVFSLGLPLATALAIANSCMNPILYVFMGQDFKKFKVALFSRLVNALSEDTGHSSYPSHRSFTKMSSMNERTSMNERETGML
Experimental: ChemerinR expressing CHO-K1 cells were collected from plates with PBS supplemented with 5 mM EDTA, gently pelleted for 2 min at 1000×g, and resuspended in binding buffer (50 mM HEPES, pH 7.4, 1 mM CaCl2, 5 mM MgCl2, 0.5% BSA). […] Total binding was measured in the absence of competitor, and nonspecific binding was measured in the presence of a 100-fold excess of unlabeled ligand. Samples were incubated for 90 min at 27° C. and then bound tracer was separated by filtration through GF/B filters presoaked in 0.5% BSA. Filters were counted in a […]-scintillation counter. Binding parameters were determined with the PRISM software (Graphpad Software) using nonlinear regression applied to a one-site competition model.

[3] = truncated Chemerin peptides, values given in μM, read-out: Mean EC50

C[C@H](NC(=O)[C@H](Cc1ccccc1)NC(=O)[C@H](CCC(N)=O)NC(=O)CNC(=O)[C@@H]1CCCN1C(=O)[C@H](Cc1ccccc1)NC(=O)[C@H](Cc1ccc(O)cc1)NC(=O)[C@H](Cc1ccccc1)NC(=O)[C@H](CO)NC(=O)[C@H](Cc1c[nH]cn1)NC(=O)[C@@H]1CCCN1C(=O)[C@H](CC(=O)O)NC(=O)[C@H](CCC(=O)O)NC(=O)CNC(=O)[C@H](C)NC(=O)[C@H](CCCNC(=N)N)NC(=O)[C@@H](N)CCC(N)=O)C(=O)N[C@@H](Cc1ccccc1)C(=O)N[C@@H](CO)C(=O)N[C@@H](CCCCN)C(=O)O [Human [Lys20] Chemerin-19] (H-QRAGEDPHSFYFPGQFAFSK-OH)
EC50 [1]: 170 µM

CC(C)C[C@H](NC(=O)[C@H](C)NC(=O)[C@H](CCCCN)NC(=O)[C@H](CO)NC(=O)[C@H](Cc1ccccc1)NC(=O)[C@H](C)NC(=O)[C@H](Cc1ccccc1)NC(=O)[C@H](CCC(N)=O)NC(=O)CNC(=O)[C@@H]1CCCN1C(=O)[C@H](Cc1ccccc1)NC(=O)[C@H](Cc1ccc(O)cc1)NC(=O)[C@H](Cc1ccccc1)NC(=O)[C@H](CO)NC(=O)[C@H](Cc1c[nH]cn1)NC(=O)[C@@H]1CCCN1C(=O)[C@H](CC(=O)O)NC(=O)[C@H](CCC(=O)O)NC(=O)CNC(=O)[C@H](C)NC(=O)[C@H](CCCNC(=N)N)NC(=O)[C@@H](N)CCC(N)=O)C(=O)N1CCC[C@H]1C(=O)N[C@@H](CCCNC(=N)N)C(=O)N[C@@H](CO)C(=O)O [Human prochemerin-25] (H-QRAGEDPHSFYFPGQFAFSKALPRS-OH; N-terminus and C-terminus assumed)
EC50 [1, 3]: 160 ± 21 µM

C[C@H](NC(=O)[C@H](Cc1ccccc1)NC(=O)[C@H](CCC(N)=O)NC(=O)CNC(=O)[C@@H]1CCCN1)C(=O)N[C@@H](Cc1ccccc1)C(=O)N[C@@H](CO)C(=O)O [Human Chemerin-7, PGQFAFS] (H-PGQFAFS-OH)
EC50 [1]: 220 ± 100 µM

QRAGEDPHSFYFPGQ
Mean EC50 ([1]; result in words): inactif

C[C@H](NC(=O)[C@H](Cc1ccccc1)NC(=O)[C@H](CCC(N)=O)NC(=O)CNC(=O)[C@@H]1CCCN1C(=O)[C@@H](N)Cc1ccccc1)C(=O)N[C@@H](Cc1ccccc1)C(=O)N[C@@H](CO)C(=O)O [Human Chemerin-8] (H-FPGQFAFS-OH; N-terminus and C-terminus assumed)
EC50 [1]: 2 ± 1 µM

C[C@H](NC(=O)[C@H](Cc1ccccc1)NC(=O)[C@H](CCC(N)=O)NC(=O)CNC(=O)[C@@H]1CCCN1C(=O)[C@H](Cc1ccccc1)NC(=O)[C@@H](N)Cc1ccc(O)cc1)C(=O)N[C@@H](Cc1ccccc1)C(=O)N[C@@H](CC(=O)O)C(N)=O (H-YFPGQFAFD-NH2; N-terminus assumed)
EC50 (ChemerinR): 4.3 nM

C[C@H](NC(=O)[C@H](Cc1ccccc1)NC(=O)[C@H](CCC(N)=O)NC(=O)CNC(=O)[C@@H]1CCCN1C(=O)[C@H](Cc1ccccc1)NC(=O)[C@H](Cc1ccc(O)cc1)NC(=O)[C@H](Cc1ccccc1)NC(=O)[C@H](CO)NC(=O)[C@H](Cc1c[nH]cn1)NC(=O)[C@@H]1CCCN1)C(=O)N[C@@H](Cc1ccccc1)C(=O)N[C@@H](CO)C(=O)O [Human Chemerin-13] (H-PHSFYFPGQFAFS-OH)
EC50 [1]: 0.014 µM

CC[C@H](C)[C@H](N)C(=O)N[C@@H](Cc1ccccc1)C(=O)N1CCC[C@H]1C(=O)NCC(=O)N[C@@H](CCC(N)=O)C(=O)N[C@@H](Cc1ccccc1)C(=O)N[C@@H](C)C(=O)N[C@@H](Cc1ccccc1)C(=O)N[C@@H](CO)C(=O)O (H-IFPGQFAFS-OH; N-terminus and C-terminus assumed)
EC50 (ChemerinR): 25.8 nM

CC(C)C[C@H](NC(=O)[C@@H](N)Cc1ccccc1)C(=O)N1CCC[C@H]1C(=O)NCC(=O)N[C@@H](CCC(N)=O)C(=O)N[C@@H](Cc1ccccc1)C(=O)N[C@@H](C)C(=O)N[C@@H](Cc1ccccc1)C(=O)N[C@@H](CO)C(=O)O (H-FLPGQFAFS-OH; N-terminus and C-terminus assumed)
EC50 (ChemerinR): 29.1 nM

C[C@H](NC(=O)[C@H](C)NC(=O)[C@H](CCC(N)=O)NC(=O)CNC(=O)[C@@H]1CCCN1C(=O)[C@H](Cc1ccccc1)NC(=O)[C@@H](N)Cc1ccc(O)cc1)C(=O)N[C@@H](Cc1ccccc1)C(=O)N[C@@H](CO)C(=O)O [Human [Ala-6] Chemerin-9] (H-YFPGQAAFS-OH; N-terminus and C-terminus assumed)
EC50 [1, 3]: 5 ± 1 µM

C[C@H](N)C(=O)N[C@@H](Cc1ccccc1)C(=O)N1CCC[C@H]1C(=O)NCC(=O)N[C@@H](CCC(N)=O)C(=O)N[C@@H](Cc1ccccc1)C(=O)N[C@@H](C)C(=O)N[C@@H](Cc1ccccc1)C(=O)N[C@@H](CO)C(=O)O [Human [Ala-1] Chemerin-9] (H-AFPGQFAFS-OH; N-terminus and C-terminus assumed)
EC50 [1]: 0.496 ± 0.08 µM

CC(C)[C@H](NC(=O)[C@@H](N)Cc1ccc(O)cc1)C(=O)N1CCC[C@H]1C(=O)NCC(=O)N[C@@H](CCC(N)=O)C(=O)N[C@@H](Cc1ccccc1)C(=O)N[C@@H](C)C(=O)N[C@@H](Cc1ccccc1)C(=O)N[C@@H](CO)C(=O)O (H-YVPGQFAFS-OH; N-terminus and C-terminus assumed)
EC50 (ChemerinR; read-out: EC50): 43.8 nM

CC(C)C[C@H](N)C(=O)N[C@@H](Cc1ccccc1)C(=O)N1CCC[C@H]1C(=O)NCC(=O)N[C@@H](CCC(N)=O)C(=O)N[C@@H](Cc1ccccc1)C(=O)N[C@@H](C)C(=O)N[C@@H](Cc1ccccc1)C(=O)N[C@@H](CO)C(=O)O (H-LFPGQFAFS-OH; N-terminus and C-terminus assumed)
EC50 (ChemerinR): 66.3 nM

C[C@H](NC(=O)[C@H](Cc1ccccc1)NC(=O)[C@H](CCC(N)=O)NC(=O)CNC(=O)[C@@H]1CCCN1C(=O)[C@H](Cc1ccccc1)NC(=O)[C@H](Cc1ccccc1)NC(=O)[C@H](Cc1ccccc1)NC(=O)[C@H](CO)NC(=O)[C@H](Cc1c[nH]cn1)NC(=O)[C@@H](N)Cc1ccc(O)cc1)C(=O)N[C@@H](Cc1ccccc1)C(=O)N[C@@H](CO)C(=O)O (H-YHSFFFPGQFAFS-OH; N-terminus and C-terminus assumed)
EC50 [1]: 0.028 µM
Ki ([2]; Ki): 12.1 ± 4.97 nM
Ki ([2]; pKi): 11.2 nM

C[C@H](NC(=O)[C@H](Cc1ccccc1)NC(=O)[C@H](CCC(N)=O)NC(=O)CNC(=O)[C@@H]1CCCN1C(=O)[C@H](Cc1ccccc1)NC(=O)[C@H](Cc1ccc(O)cc1)NC(=O)[C@H](Cc1ccccc1)NC(=O)[C@H](CO)NC(=O)[C@@H](N)Cc1c[nH]cn1)C(=O)N[C@@H](Cc1ccccc1)C(=O)N[C@@H](CO)C(=O)O [Human Chemerin-12] (H-HSFYFPGQFAFS-OH; N-terminus and C-terminus assumed)
EC50 [1]: 0.0122 ± 0.0034 µM

B1: truncated PreprocHEMERIN: 157 amino acid truncated Preprochemerin polypeptide (SEQ ID NO: 73, FIG. 16) (protein, listed as Homo sapiens)
chain: MRRLLIPLALWLGAVGVGVAELTEAQRRGLQVALEEFHKHPPVQWAFQETSVESAVDTPFPAGIFVRLEFKLQQTSCRKRDWKKPECKVRPNGRKRKCLACIKLGSEDKVLGRLVHCPIETQVLREAEEHQETQCLRVQRAGEDPHSFYFPGQFAFS
EC50 ([1]; CHO cells expressing ChemerinR, aequorin assay, read-out: EC50 for activation of ChemerinR): 0.00427 µM
